Measurements from publication PMC12666538.

Legend:
[1] = CCClick: 37% aq formaldehyde (5 mM, 5 eq) bridges the two exocyclic methylene carbons of a Fischer base dimer (two C-C bonds), then hemin (1 eq)/air oxidative dehydrogenation, one pot; Al2O3 column; conditions: the molecule shown is the open-chain precursor, DMF, 1.0 mM, 37.0 °C, 12.0 h
[2] = CCClick: formaldehyde (10 mM) bridges the two exocyclic methylene carbons of a Fischer base dimer (Knoevenagel dehydration cyclization, two C-C bonds), then hemin (1 mM)/air oxidative dehydrogenation to cyclic trimethine cyanine; conditions: the molecule shown is the open-chain precursor, DMF, 37.0 °C, 12.0 h

SMILES: C=C1N(CCCCCCN2C(=C)C(C)(C)c3c2ccc2ccccc32)c2ccc(OCCCCCC[P+](c3ccccc3)(c3ccccc3)c3ccccc3)cc2C1(C)C.[I-] [FB2 -> CY-2]
- ring closure, isolated yield ([1]; 13-membered ring): 57%
- ring closure, conversion by HPLC ([2]; 13-membered ring): 90%

SMILES: C=C1N(CCCCCCCCCCCCN2C(=C)C(C)(C)c3ccccc32)c2ccccc2C1(C)C [FB6 -> CY-6]
- ring closure, isolated yield ([1]; 19-membered ring): 29%
- ring closure, conversion by HPLC ([2]; 19-membered ring): 31%

SMILES: C=C1N(CCCCCCN2C(=C)C(C)(C)c3cc(OC)ccc32)c2ccc(OC)cc2C1(C)C [FB4 -> CY-4]
- ring closure, isolated yield ([1]; 13-membered ring): 40%
- ring closure, conversion by HPLC ([2]; 13-membered ring): 85%

SMILES: C=C1N(CCCCCCN2C(=C)C(C)(C)c3c2ccc2ccccc32)c2ccccc2C1(C)C [FB3 -> CY-3]
- ring closure, isolated yield ([1]; 13-membered ring): 35%
- ring closure, conversion by HPLC ([2]; 13-membered ring): 48%

SMILES: C=C1N(CCCCCCCCCCCCN2C(=C)C(C)(C)c3c2ccc2ccccc32)c2ccc3ccccc3c2C1(C)C [FB9 -> CY-9]
- ring closure, isolated yield ([1]; 19-membered ring): 44%
- ring closure, conversion by HPLC ([2]; 19-membered ring): 77%

SMILES: C=C1N(CCCCCCN2C(=C)C(C)(C)c3c2ccc2ccccc32)c2ccc3ccccc3c2C1(C)C [FB1 -> CY-1]
- ring closure, isolated yield ([1]; 13-membered ring): 62%
- ring closure, conversion by HPLC ([2]; 13-membered ring): 90%

SMILES: C=C1N(CCCCCCN2C(=C)C(C)(C)c3ccccc32)c2ccccc2C1(C)C [FB5 -> CY-5]
- ring closure, isolated yield ([1]; 13-membered ring): 26%
- ring closure, conversion by HPLC ([2]; 13-membered ring): 31%

SMILES: C=C1N(CCCCCCCCCCCCCCCCCCN2C(=C)C(C)(C)c3ccccc32)c2ccccc2C1(C)C [FB7 -> CY-7]
- ring closure, isolated yield ([1]; 25-membered ring): 22%
- ring closure, conversion by HPLC ([2]; 25-membered ring): 24%

SMILES: C=C1N(CCOCCOCCN2C(=C)C(C)(C)c3c2ccc2ccccc32)c2ccc3ccccc3c2C1(C)C [FB8 -> CY-8]
- ring closure, isolated yield ([1]; 15-membered ring): 16%
- ring closure, conversion by HPLC ([2]; 15-membered ring): 34%
